Data set [1] relates to B16 cell line. Nature of the data set: In vitro antiproliferative activity, MTT assay, B16. In kind it is cell-based. Particulars: Mus musculus, 48 h. The method, then: (§1) HCT116, MCF-7 and B16 cell lines were plated on 96-well plates at a density of 5000 per well and incubated overnight. […] After 48 h, 0.5% MTT (Amresco, Solon, OH, USA) solution was added to each well, and further incubation for 4 h, then cells were centrifuged at 2500 rpm for 15 min and removed from the culture medium. And add 150 μL DMSO to dissolve the formazan. After mixing for 5 min, optical density was detected at 570 nm on a microplate reader (Thermo, Waltham, MA, USA).
On the technique in general: Tetrazolium assays rely on reduction of a dye to a coloured formazan, in cell work by metabolically active cells.

Data set [2] deals with HCT116 cell line. Nature of the data set: In vitro antiproliferative activity, MTT assay, HCT116. It counts as cell-based. Particulars: Homo sapiens, HCT-116, 48 h. The method, then:
as §1

Data set [3] deals with MCF-7 cell line. Nature of the data set: In vitro antiproliferative activity, MTT assay, MCF-7. In kind it is cell-based. As to conditions: Homo sapiens, MCF7, 48 h. As to the method: as §1
The nature of data set [4]: Body weight in B16 melanoma xenograft model. In kind it is in vivo. As to conditions: B16 tumor-bearing C57BL/6J mice; for Body Weight End: 90 mg/kg for 14 days, end of treatment; for Body Weight Initial: 90 mg/kg, before treatment. As to the method:
(§2) Male C57BL/6J mice were employed to establish the xenograft tumor model by subcutaneous injection (S.C.) of 6 × 10^6 B16 cells. […] In the end of treatment, the mice were sacrificed and the tumor were peeled off and weighted. The inhibition rate of tumor growth was calculated. All animal protocols were conformed to the Guidelines for the Care and Use of Laboratory Animals approved by the Animal Care and Use Committee of Yantai University.

Data set [5] relates to B16 melanoma xenograft. Nature of the data set: In vivo antitumor activity, B16 melanoma xenograft model. Particulars: 90 mg/kg for 14 days (text: orally; table footnote: i.p.), C57BL/6J mice. As to the method: as §2
In data set [6] the target is EGFR (Homo sapiens, UniProt P00533). Nature of the data set: EGFR inhibitory assay (caliper mobility shift assay).
EGFR, sequence (P00533 25-1210): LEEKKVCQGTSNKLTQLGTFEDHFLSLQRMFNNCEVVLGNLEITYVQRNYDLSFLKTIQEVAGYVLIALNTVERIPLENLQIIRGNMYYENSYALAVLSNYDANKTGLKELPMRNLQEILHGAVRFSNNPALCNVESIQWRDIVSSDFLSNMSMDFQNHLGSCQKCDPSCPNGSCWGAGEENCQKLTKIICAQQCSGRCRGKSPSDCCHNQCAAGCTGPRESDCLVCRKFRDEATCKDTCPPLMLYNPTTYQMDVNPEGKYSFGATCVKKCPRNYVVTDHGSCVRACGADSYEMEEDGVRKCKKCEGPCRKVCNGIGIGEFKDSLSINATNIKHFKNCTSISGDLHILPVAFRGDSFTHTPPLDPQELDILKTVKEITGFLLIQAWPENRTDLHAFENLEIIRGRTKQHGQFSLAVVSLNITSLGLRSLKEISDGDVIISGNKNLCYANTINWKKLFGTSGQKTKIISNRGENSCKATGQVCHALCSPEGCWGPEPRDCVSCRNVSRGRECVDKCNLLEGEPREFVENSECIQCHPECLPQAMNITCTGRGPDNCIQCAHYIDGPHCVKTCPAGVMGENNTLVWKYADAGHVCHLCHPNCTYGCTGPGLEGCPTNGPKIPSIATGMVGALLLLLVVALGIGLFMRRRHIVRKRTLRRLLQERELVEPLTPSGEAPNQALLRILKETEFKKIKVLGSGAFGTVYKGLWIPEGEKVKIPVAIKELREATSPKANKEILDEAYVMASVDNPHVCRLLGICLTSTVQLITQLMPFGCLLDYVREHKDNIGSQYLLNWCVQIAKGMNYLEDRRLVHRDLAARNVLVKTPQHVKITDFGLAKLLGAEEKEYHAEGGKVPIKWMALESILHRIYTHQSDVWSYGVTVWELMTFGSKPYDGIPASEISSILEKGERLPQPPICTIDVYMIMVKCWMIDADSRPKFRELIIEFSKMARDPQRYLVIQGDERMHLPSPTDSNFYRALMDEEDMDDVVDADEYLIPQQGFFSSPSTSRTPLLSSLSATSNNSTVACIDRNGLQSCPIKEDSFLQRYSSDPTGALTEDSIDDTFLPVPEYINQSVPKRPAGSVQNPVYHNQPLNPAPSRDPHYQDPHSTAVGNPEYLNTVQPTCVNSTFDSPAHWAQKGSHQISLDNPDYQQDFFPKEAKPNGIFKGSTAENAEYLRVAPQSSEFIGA
Protocol: (§3) Each of these compounds was dissolved in DMSO at 10 mM, diluted to 50× of the final desired highest inhibitor concentration in reaction by 100% DMSO, and 100 μL of each dilution was added to one well on 96-well storage plate, and diluted by transferring 10 μL to 90 μL of 100% DMSO in the next well. Besides, 100 μL of 100% DMSO was added to two empty wells for no compound control and no enzyme control in the same 96-well plate respectively. The plate was marked as source plate. 10 μL of each compound was transferred from the source plate to a new 96-well plate, which was marked as the intermediate plate. Next, 90 μL of 1× kinase base buffer was added to each well of the intermediate plate, and mixed by shaking vigorously for 10 min. A total of 5 μL of each well from the 96-well intermediate plate was transferred to a 384-well plate in duplicate.
(§4) Kinase reaction: kinase in 1× kinase base buffer, FAM-labeled peptide and ATP in the 1× kinase base buffer were added, then 10 μL of 2.5× enzyme solution was added to each well of the 384-well assay plate. After incubating at room temperature for 10 min, 10 μL of 2.5× peptide solution was added to each well of the 384-well assay plate. […] Finally, the kinase reactions were quenched with 25 μL of EDTA and the plates were washed. The dates were collected and converted with the caliper program.
In data set [7] the target is VEGFR-2 (Homo sapiens, UniProt P35968). Nature of the data set: VEGFR-2 inhibitory assay (caliper mobility shift assay).
VEGFR-2, sequence (P35968 20-1356): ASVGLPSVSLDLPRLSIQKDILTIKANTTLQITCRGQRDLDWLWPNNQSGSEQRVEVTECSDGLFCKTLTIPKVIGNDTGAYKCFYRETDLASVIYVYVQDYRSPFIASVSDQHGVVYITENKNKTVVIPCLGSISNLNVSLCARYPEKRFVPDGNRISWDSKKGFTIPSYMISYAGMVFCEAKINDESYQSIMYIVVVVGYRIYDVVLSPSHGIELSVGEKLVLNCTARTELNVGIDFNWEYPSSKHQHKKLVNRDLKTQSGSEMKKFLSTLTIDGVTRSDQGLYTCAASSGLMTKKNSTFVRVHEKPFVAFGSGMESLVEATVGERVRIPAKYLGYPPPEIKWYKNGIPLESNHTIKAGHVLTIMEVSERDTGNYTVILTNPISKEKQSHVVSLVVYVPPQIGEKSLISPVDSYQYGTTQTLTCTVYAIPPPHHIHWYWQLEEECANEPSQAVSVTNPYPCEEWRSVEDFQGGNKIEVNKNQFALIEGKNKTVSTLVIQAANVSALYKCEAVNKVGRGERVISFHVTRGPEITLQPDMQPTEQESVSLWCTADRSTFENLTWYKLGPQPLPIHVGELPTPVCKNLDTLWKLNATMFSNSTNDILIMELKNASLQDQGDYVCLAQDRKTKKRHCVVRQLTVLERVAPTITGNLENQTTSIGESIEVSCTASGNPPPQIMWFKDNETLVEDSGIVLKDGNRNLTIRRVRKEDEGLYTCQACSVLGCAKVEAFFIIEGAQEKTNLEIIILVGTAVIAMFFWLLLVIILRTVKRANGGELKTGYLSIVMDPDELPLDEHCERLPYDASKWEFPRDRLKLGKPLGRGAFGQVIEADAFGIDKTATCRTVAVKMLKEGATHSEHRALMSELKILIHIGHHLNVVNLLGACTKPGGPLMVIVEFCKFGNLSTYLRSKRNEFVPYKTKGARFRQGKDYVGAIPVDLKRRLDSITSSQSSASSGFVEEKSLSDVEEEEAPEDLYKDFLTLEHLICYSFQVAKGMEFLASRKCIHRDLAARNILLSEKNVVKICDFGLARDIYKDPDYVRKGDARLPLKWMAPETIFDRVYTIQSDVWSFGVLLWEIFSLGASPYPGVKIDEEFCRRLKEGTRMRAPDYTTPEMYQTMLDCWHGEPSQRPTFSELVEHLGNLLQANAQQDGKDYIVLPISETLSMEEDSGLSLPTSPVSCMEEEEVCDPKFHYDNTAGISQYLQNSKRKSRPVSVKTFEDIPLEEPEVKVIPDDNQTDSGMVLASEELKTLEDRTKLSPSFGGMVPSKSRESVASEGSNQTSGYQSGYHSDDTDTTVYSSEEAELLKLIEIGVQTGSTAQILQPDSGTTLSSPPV
Protocol: as §3, §4

Bounds are passed on as bounds.

One may read the IC50 as the concentration that gives 50% inhibition. The term melting point denotes the temperature of the solid-liquid transition.

As for `CNC(=O)c1cc(Oc2ccc(NC(=O)Nc3ccc(Cl)c(C(F)(F)F)c3)cc2)ccn1` [sorafenib, reference compound], the figures for the IC50 in data set [1], in data set [2] and in data set [3] were 9.29 µM, 10.6 µM and 17.9 µM, respectively. In addition, in data set [4], the “Body Weight End” value is recorded as 21.3 ± 2.4 g. The “Body Weight Initial” value in data set [4] was 20.7 ± 2.1 g. The “Inhibition Rate of tumor growth” value in data set [5] and in data set [5] (listed as Sorafenib) was 31.25% throughout. Further, the “Tumor Weight” value in data set [5] was found to be 0.88 ± 0.46 g.

On to `COc1cc2ncnc(Sc3cccc(NC(=S)Nc4ccc(Br)c(C(F)(F)F)c4)c3)c2cc1OC` [Compound 10q, 1-(4-Bromo-3-trifluoromethylphenyl)-3-[3-(6,7-dimethoxyquinazolin-4-ylsulfanyl)phenyl] thiourea], for which the melting point lay within 150.3 to 152 °C. The same compound displayed an IC50 in data set [1] of 5.57 µM. In data set [2], this compound yielded an IC50 of 8.35 µM. The compound further returned an IC50 in data set [3] of 15.7 µM. The half-inhibitory concentration (IC50) in data set [6] came out at 0.01 µM. Besides, in data set [4], the “Body Weight End” value came out at 20.2 ± 2.7 g and the “Body Weight Initial” value is listed as 19.1 ± 2.7 g. Also, the IC50 in data set [7] amounted to 0.08 µM. Further, in data set [5], the “Inhibition Rate of tumor growth” value is on record as 64.06% and the “Tumor Weight” value came to 0.46 ± 0.14 g.

For the compound `COc1cc2ncnc(Oc3cccc(NC(=S)Nc4ccc(C)cc4)c3)c2cc1OC` [Compound 10k, 1-p-tolyl-3-[3-(6,7-dimethoxyquinazolin-4-yloxy)phenyl]thiourea], the melting point lay in the range of 138.4 to 140 °C. This compound registered an IC50 in data set [1] of over 100 µM. This compound had an IC50 in data set [2] of over 100 µM. In data set [3], this compound showed an IC50 of 26.5 µM. Besides, in data set [6], the IC50 is over 10 µM. In addition, in data set [7], the IC50 was over 10 µM.

Compound `COc1cc2ncnc(Sc3cccc(NC(=S)Nc4ccc(Cl)c(C(F)(F)F)c4)c3)c2cc1OC` [Compound 10m, 1-(4-Chloro-3-trifluoromethylphenyl)-3-[3-(6,7-dimethoxyquinazolin-4-ylsulfanyl)phenyl] thiourea] yielded a melting point of 162.2 to 164 °C. In data set [1], this compound displayed an IC50 of 7.89 µM. The compound also gave a concentration for half-maximal inhibition (IC50) in data set [2] of 8.11 µM. The compound also had an IC50 in data set [3] of 20.9 µM. Besides, in data set [6], the IC50 worked out at 0.01 µM. In data set [4], the “Body Weight End” value came to 20.9 ± 1.6 g and the “Body Weight Initial” value amounted to 19.2 ± 2.1 g. Further, the IC50 in data set [7] is 0.07 µM. Further, in data set [5], the “Inhibition Rate of tumor growth” value came out at 20.31% and the “Tumor Weight” value is on record as 1.02 ± 0.36 g.

The compound `COc1cc2ncnc(Sc3cccc(NC(=S)Nc4ccc(Cl)cc4)c3)c2cc1OC` [Compound 10t, 1-(4-Chlorophenyl)-3-[3-(6,7-dimethoxyquinazolin-4-ylsulfanyl)phenyl]thiourea] yielded a melting point of 124.8 to 126.1 °C. The compound also registered an IC50 in data set [1] of 57.6 µM. The compound further yielded an IC50 in data set [2] of 23.1 µM. Besides, the IC50 in data set [3] was 26.4 µM. Further, the IC50 in data set [6] was determined as 2.86 µM. For the same compound, in data set [7], the IC50 is 6.93 µM.

Turning to `COc1cc2ncnc(Sc3cccc(NC(=S)Nc4ccc(C)cc4)c3)c2cc1OC` [Compound 10v, 1-p-tolyl-3-[3-(6,7-dimethoxyquinazolin-4-ylsulfanyl)phenyl]thiourea], the melting point is 163.1 to 165 °C. This compound returned an IC50 in data set [1] of over 100 µM. Further, half-maximal inhibition in data set [2] (IC50) was put at 83.2 µM. Further, in data set [3], the IC50 was determined as 28.9 µM. Besides, the IC50 in data set [6] is over 10 µM. For the same compound, the half-maximal inhibitory concentration (IC50) in data set [7] was over 10 µM.

Compound `COc1cc2ncnc(Sc3cccc(NC(=S)Nc4ccc(F)c(F)c4)c3)c2cc1OC` [Compound 10s, 1-(3,4-Difluorophenyl)-3-[3-(6,7-dimethoxyquinazolin-4-ylsulfanyl)phenyl]thiourea] showed a melting point of 128.2 to 130.4 °C. This compound also showed an IC50 in data set [1] of 42.2 µM. In data set [2], the IC50 is over 100 µM. Moreover, in data set [3], the IC50 was determined as 30.5 µM. In addition, in data set [6], the IC50 was 3.17 µM. In addition, in data set [7], the half-maximal inhibitory concentration (IC50) stood at 5.14 µM.

In turn, `COc1cc2ncnc(Oc3cccc(NC(=S)Nc4ccc(OC(F)(F)F)cc4)c3)c2cc1OC` [Compound 10f, 1-(4-Trifluoromethoxyphenyl)-3-[3-(6,7-dimethoxyquinazolin-4-yloxy)phenyl]thiourea] showed a melting point of 171.5 to 174 °C. This compound yielded an IC50 in data set [1] of 54 µM. This compound displayed an IC50 in data set [2] of 58.6 µM. This compound also came in with an IC50 in data set [3] of 18.8 µM. Besides, the IC50 in data set [6] was over 10 µM. In addition, the IC50 in data set [7] was over 10 µM.

Consider `COc1cc2ncnc(Sc3cccc(NC(=S)Nc4ccc(Cl)cc4Cl)c3)c2cc1OC` [Compound 10r, 1-(2,4-Dichlorophenyl)-3-[3-(6,7-dimethoxyquinazolin-4-ylsulfanyl)phenyl]thiourea], for which the melting point fell in the range of 172.4 to 174 °C. The same compound registered an IC50 in data set [1] of 27.4 µM. In addition, it took 63.1 µM to reach half-maximal inhibition in data set [2] (IC50). In data set [3], this compound yielded an IC50 of 14.8 µM. Moreover, the IC50 in data set [6] came out at 3.56 µM. Besides, the IC50 in data set [7] was over 10 µM.

For the compound `COc1cc2ncnc(Oc3cccc(NC(=S)Nc4ccc(Cl)c(C(F)(F)F)c4)c3)c2cc1OC` [Compound 10b, 1-(4-Chloro-3-trifluoromethylphenyl)-3-[3-(6,7-dimethoxyquinazolin-4-yloxy)phenyl]thiourea], the IC50 in data set [1] stood at 6.11 µM; in data set [2], 9.13 µM; in data set [3], 17.7 µM; in data set [6], 0.02 µM; in data set [7] it was 0.05 µM. Besides, in data set [4], the “Body Weight End” value worked out at 19.5 ± 3.0 g. Further, the “Body Weight Initial” value in data set [4] is listed as 18.9 ± 1.8 g. Besides, in data set [5], the “Inhibition Rate of tumor growth” value is recorded as 49.22%. The “Tumor Weight” value in data set [5] was determined as 0.65 ± 0.22 g.

With `COc1cc2ncnc(Sc3cccc(NC(=S)Nc4ccc(OC(F)(F)F)cc4)c3)c2cc1OC` [Compound 10n, 1-(4-Trifluoromethoxyphenyl)-3-[3-(6,7-dimethoxyquinazolin-4-ylsulfanyl)phenyl]thiourea], the melting point was in the range of 138 to 139.3 °C. This compound showed a half-maximal inhibitory concentration (IC50) in data set [1] of 68.4 µM. In addition, the midpoint of inhibition in data set [2], the IC50, lay at 64.5 µM. The compound further displayed an IC50 in data set [3] of 32.4 µM. For the same compound, the IC50 in data set [6] is over 10 µM. Further, the IC50 in data set [7] is over 10 µM.

`COc1cc2ncnc(Sc3cccc(NC(=S)Nc4cccc(C(F)(F)F)c4)c3)c2cc1OC` [Compound 10p, 1-(3-Trifluoromethylphenyl)-3-[3-(6,7-dimethoxyquinazolin-4-ylsulfanyl)phenyl]thiourea]: the melting point fell in the range of 127.5 to 131 °C. The same compound yielded an IC50 in data set [1] of 12.9 µM. The compound further showed an IC50 in data set [2] of 9.03 µM. The same compound displayed an IC50 in data set [3] of 21 µM. Further, the concentration for half-maximal inhibition (IC50) in data set [6] stood at 0.07 µM. Also, in data set [7], the IC50 is 0.27 µM.

`COc1cc2ncnc(Sc3cccc(NC(=S)Nc4cc(C(F)(F)F)cc(C(F)(F)F)c4)c3)c2cc1OC` [Compound 10o, 1-(3,5-Ditrifluoromethylphenyl)-3-[3-(6,7-dimethoxyquinazolin-4-ylsulfanyl)phenyl]thiourea] came in with a melting point of 168.2 to 171 °C. For the same compound, half-maximal inhibition in data set [1] (IC50) required 12.2 µM. The compound further came in with an IC50 in data set [2] of 9.57 µM. The compound also returned an IC50 in data set [3] of 19 µM. Also, in data set [6], the IC50 was 0.02 µM. For the same compound, the IC50 in data set [7] came out at 0.09 µM.

`COc1cc2ncnc(Oc3cccc(NC(=S)Nc4ccc(F)c(F)c4)c3)c2cc1OC` [Compound 10h, 1-(3,4-Difluorophenyl)-3-[3-(6,7-dimethoxyquinazolin-4-yloxy)phenyl]thiourea] had a melting point of 181.3 to 184.1 °C. Also, it took 19.4 µM to reach half-maximal inhibition in data set [1] (IC50). Also, the IC50 in data set [2] was found to be 49.5 µM. The midpoint of inhibition in data set [3], the IC50, lay at 16 µM. Besides, in data set [6], the IC50 came to 4.88 µM. Also, the IC50 in data set [7] turned out to be 7.06 µM.
